Converted amounts (≈) assume the structure as drawn.
Test system: anti-CYP mAb 2G7H9
Assay: ic-ELISA based on mAb 2G7H9
Assay type: binding, mouse
Protocol: The ic-ELISA procedure was executed according to previous studies. Each well of the ELISA plate was coated with 100 μL of coating antigen diluted with carbonate buffer (0.05 mol/L, pH 9.6) at 4 °C overnight. After washing three times with phosphate-buffered saline (PBS, 0.01 mol/L, pH 7.4) containing 1‰ Tween-20, the wells were blocked with 200 μL of 5% skim milk powder in PBS at 37 °C for two hours. After the same washing procedure, 50 μL of CYP standard solution and 50 μL of mAb were pipetted into each well and incubated at 37 °C for one hour. After washing five times, 100 μL per well of 0.5‰ horseradish peroxidase-labeled goat anti-mouse IgG antibody in PBS was added and incubated at 37 °C for one hour. After the wells were washed five times, 100 μL per well of fresh substrate solution (0.1 mg/mL 3,3′,5,5′-tetramethylbenzidine and 0.024‰ H2O2 in 0.1 M citrate acid buffer) was added to react at 37 °C for 15 min. Then, 50 μL per well of 0.2 mol/L H2SO4 was used to stop the reaction, and the absorbances were read at 450 nm with a microplate reader.
Under the optimal conditions, a standard curve was constructed using a series of concentrations of standard solutions (50, 25, 12.5, 6.25, 3.13, 1.56, 0.78, 0.39 and 0.20 ng/mL) to assess the sensitivity of ic-ELISA. The IC50 and linear range (IC10–IC90) were calculated by a logistic equation established with Origin Pro 8.0.
The CRs of the ic-ELISA were calculated with the following equation:CR (%) = (IC50 of CYP/IC50 of analogues) × 100%.

CC1(C)C(C=C(Cl)Cl)C1C(=O)OC(C#N)c1cccc(Oc2ccccc2)c1 (centres unmarked) [CYP, Cypermethrin]
IC50 (hapten 5-BSA as coating antigen, before buffer optimization): 5.75 ng/mL (≈ 0.0138 µM) | IC50 (homologous ic-ELISA, hapten 1 as coating antigen): 19.14 ng/mL (≈ 0.046 µM) | IC50 (homologous ic-ELISA, hapten 1 as coating antigen, listed as Cypermethrin): 19 ng/mL (≈ 0.0456 µM) | limit of detection (IC10) (optimal conditions): 0.40 ng/mL | linear range (IC10–IC90) (optimal conditions): 0.40 to 7.87 ng/mL | IC50 (optimal conditions, coating antigen hapten 5-BSA, PBS pH 7.4, 10% methanol, 0.3 mol/L NaCl): 2.49 ng/mL (≈ 0.00598 µM) | IC50 (working buffer: 10% Acetone): 7.99 ng/mL (≈ 0.0192 µM) | IC50 (working buffer: 10% Acetonitrile): 8.88 ng/mL (≈ 0.0213 µM) | IC50 (working buffer: 10% Dimethyl sulfoxide): 11.03 ng/mL (≈ 0.0265 µM) | IC50 (working buffer: 10% Methanol (solvent type comparison)): 7.67 ng/mL (≈ 0.0184 µM) | IC50 (working buffer: Methanol 5%): 30.63 ng/mL (≈ 0.0736 µM) | IC50 (working buffer: Methanol 20%): 20.59 ng/mL (≈ 0.0495 µM) | IC50 (working buffer: Methanol 40%): 24.47 ng/mL (≈ 0.0588 µM) | IC50 (working buffer: Na+ 0.07 mol/L): 43.31 ng/mL (≈ 0.104 µM) | IC50 (working buffer: Na+ 0.14 mol/L): 9.22 ng/mL (≈ 0.0221 µM) | IC50 (working buffer: Na+ 0.2 mol/L): 13.58 ng/mL (≈ 0.0326 µM) | IC50 (working buffer: Na+ 0.3 mol/L): 2.42 ng/mL (≈ 0.00581 µM) | IC50 (working buffer: Na+ 0.4 mol/L): 2.94 ng/mL (≈ 0.00706 µM) | IC50 (working buffer: pH 6): 4.41 ng/mL (≈ 0.0106 µM) | IC50 (working buffer: pH 7): 5.24 ng/mL (≈ 0.0126 µM) | IC50 (working buffer: pH 7.4): 3.09 ng/mL (≈ 0.00742 µM) | IC50 (working buffer: pH 8): 8.06 ng/mL (≈ 0.0194 µM) | IC50 (working buffer: pH 9): 4.03 ng/mL (≈ 0.00968 µM)
